Results: US20170038384A1, “TREATMENT OF TUMORS EXPRESSING MUTANT P53” (SLOAN-KETTERING INSTITUTE FOR CANCER RESEARCH, priority 2014, published 2017)

Key:
PDGFRb [1] = molecular target: T1, PDGFRb (Homo sapiens, UniProt P09619); assay: Western blotting for phospho-PDGFRb in A2.1 cells; assay type: cell-based; settings: 0.3 μM
T1 construct: Western blotting for phospho-PDGFRb, PDGFRb, and Actin in human A2.1 cells; endogenous in cells; host or cells: human A2.1 pancreatic cancer cell line (mutant p53 155P)
T1 sequence (P09619 33-1106): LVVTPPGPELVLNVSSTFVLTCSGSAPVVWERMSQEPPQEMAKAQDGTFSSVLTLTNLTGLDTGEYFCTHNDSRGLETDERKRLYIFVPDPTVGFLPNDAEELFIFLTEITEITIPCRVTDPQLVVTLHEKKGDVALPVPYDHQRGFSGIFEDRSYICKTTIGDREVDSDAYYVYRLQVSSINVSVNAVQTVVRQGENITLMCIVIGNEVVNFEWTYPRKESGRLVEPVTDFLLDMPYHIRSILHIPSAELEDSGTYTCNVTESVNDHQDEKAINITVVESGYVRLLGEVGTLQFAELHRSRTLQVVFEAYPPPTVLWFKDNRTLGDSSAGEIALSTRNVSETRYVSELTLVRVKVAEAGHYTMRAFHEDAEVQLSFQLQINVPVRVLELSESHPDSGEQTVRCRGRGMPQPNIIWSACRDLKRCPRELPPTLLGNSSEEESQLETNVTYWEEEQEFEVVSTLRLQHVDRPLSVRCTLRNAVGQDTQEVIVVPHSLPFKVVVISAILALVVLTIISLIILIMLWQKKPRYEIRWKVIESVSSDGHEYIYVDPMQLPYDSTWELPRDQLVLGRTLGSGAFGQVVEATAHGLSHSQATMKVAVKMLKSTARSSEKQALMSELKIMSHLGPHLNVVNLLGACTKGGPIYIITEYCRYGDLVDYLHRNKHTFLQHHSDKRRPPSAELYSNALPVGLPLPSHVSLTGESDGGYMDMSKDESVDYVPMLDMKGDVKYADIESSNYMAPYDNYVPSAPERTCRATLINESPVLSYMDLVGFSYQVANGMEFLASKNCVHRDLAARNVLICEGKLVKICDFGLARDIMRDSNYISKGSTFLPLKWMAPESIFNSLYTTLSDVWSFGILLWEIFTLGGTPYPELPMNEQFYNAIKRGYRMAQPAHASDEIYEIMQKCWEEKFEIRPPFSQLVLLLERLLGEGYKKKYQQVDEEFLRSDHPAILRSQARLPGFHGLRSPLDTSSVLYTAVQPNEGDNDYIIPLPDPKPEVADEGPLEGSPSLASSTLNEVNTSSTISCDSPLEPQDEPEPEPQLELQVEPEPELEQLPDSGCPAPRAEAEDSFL
Text: FIG. 12D depicts Western blotting for phospho-PDGFRb, PDGFRb, and Actin in human A2.1 cells after treatment with DMSO or crenolanib at varying doses.

A2.1 cells = assay: Three-dimensional collagen invasion assay, A2.1 cells; assay type: cell-based, human; settings: 300 nM
Protocol: Images were analyzed using Imaris software.

KPC cells [2] = assay: Propidium Iodide staining of KPC cells treated overnight; assay type: cell-based, mouse; settings: KPC cells pretreated overnight
[3] = tested on: murine KPC pancreatic cancer cells; assay: MTS assay of KPC cell viability/proliferation; assay type: cell-based, mouse
Protocol: (§1) FIG. 5B is a graph of MTS assay (E490) of murine KPC and human A2.1 cells treated with crenolanib with various doses for 72 hours. Normalized values are expressed as means±SD form quadruple replicates.
Normalized values are expressed as means±SD form quadruple replicates.
(§2) All cell lines were maintained in DMEM+10% FBS, at 37° C. in 5% CO2. Stable cell lines expressing shRNAs were generated by retroviral mediated gene transfer. Briefly, Phoenix or Ampho packaging cells (for murine or human cell lines, respectively) were transfected by the calcium phosphate method with vectors expressing NF-YA, NF-YB, p53, p73, PDGFRa, PDGFRb or Renilla-control shRNAs, and the generated viruses were harvested to infect KPC, KPflC, or a series of human pancreatic, breast, lung and colon cancer cell lines. Infected cells were selected with puromycin and experiments were carried out on derived cell populations. To generate cells stably expressing mutant p53, p73 or PDGFRb, KPflC cells were infected with MSCV-p53-R175H, -R273H, PDGFRb or pcDNA3-HA-p73α and selected in puromycin and G418 respectively to yield stable pools.

KPflC cells = assay: Lung colonization assay after tail vein injection of drug-pretreated KPflC cells; assay type: in vivo, mouse; settings: same concentration as for KPC cells
Protocol: FIG. 12G (left panel) depicts representative merged brightfield/GFP images of pulmonary lobes after tail vein injection of crenolanib- or DMSO-treated KPflC cells into mice. FIG. 12G (middle panel) depicts H&E stainings of representative sections of pulmonary lobes. FIG. 12G (right panel) is a graph of quantification of total number of lung metastatic nodules in individual mouse (at least six mice per each group). Data are represented as mean±SD.
(§3) All animal experiments were performed in accordance with a protocol approved by the Memorial Sloan-Kettering Institutional Animal Care and Use Committee. For colonization studies, KPC cells (1×10^5) were resuspended in 200 μl PBS and injected intravenously into the tail vein of 8 week-old female athymic nude mice. Lungs were harvested 7 days post injection and analyzed for colonization by GFP positivity (Nikon SMZ1500) and histology.

KPC cells [4] = assay: Three-dimensional collagen invasion assay, KPC cells
Protocol: FIG. 5D (left panel) is a graph of quantification of invasion of murine KPC and human A2.1 treated with either DMSO or crenolanib at 300 nM. Values are means±SD of 9 replicates from one representative experiment.
In brief, 24-well transwell inserts (Greiner bio-one) were lined with collagen type 1 (BD Biosciences), and cells were seeded on the inverted inserts. The lower chambers were filled with medium containing 0.5% FBS and upper chambers containing the collagen matrix were filled with medium containing 20% FBS and the chemoattractant HGF.
Invasion assay inserts were fixed using 4% formaldehyde and stained using DAPI and Alexa568 phalloidin (Invitrogen) before confocal microscopy (Perkin Elmer Spinning Disk) was conducted. Images were analyzed using Imaris software.

KPC cells [5] = assay: Lung colonization assay after tail vein injection of drug-pretreated KPC cells; assay type: in vivo, mouse
Text: FIG. 5E (left panel) are representative merged brightfield/GFP imaged of whole lung as well as H&E stains of representative sections of pulmonary lobes after tail vein injection of crenolanib- or DMSO-treated KPC cells into mice. FIG. 5E (right panel) is a graph of quantification of total number of lung metastatic nodules in individual mouse (at least six mice per each group). Data are represented as mean±SD.
FIG. 6B (left panel) are representative merged brightfield/GFP images of whole lung. FIG. 6B (middle panel) are H&E stainings of representative sections of pulmonary lobes. […] FIG. 6B (right panel) is a graph of quantification of total number of lung metastatic nodules in individual mouse (at least six mice per each group. Data are represented as mean±SD.
as §3

[6] = tested on: human A2.1 pancreatic cancer cells; assay: MTS assay of A2.1 cell viability; assay type: cell-based
Protocol: as §1, §2

PDGFRb [7] = molecular target: T2, PDGFRb (Mus musculus, UniProt P05622); assay: PDGFRb phosphorylation in KPC cells (immunoprecipitation, phospho-Tyrosine western blot); assay type: cell-based
T2 construct: endogenous in cells; host or cells: murine KPC pancreatic cancer cell line (Kras G12D, p53 R172H, Pdx1-Cre)
T2 sequence (P05622 32-1098): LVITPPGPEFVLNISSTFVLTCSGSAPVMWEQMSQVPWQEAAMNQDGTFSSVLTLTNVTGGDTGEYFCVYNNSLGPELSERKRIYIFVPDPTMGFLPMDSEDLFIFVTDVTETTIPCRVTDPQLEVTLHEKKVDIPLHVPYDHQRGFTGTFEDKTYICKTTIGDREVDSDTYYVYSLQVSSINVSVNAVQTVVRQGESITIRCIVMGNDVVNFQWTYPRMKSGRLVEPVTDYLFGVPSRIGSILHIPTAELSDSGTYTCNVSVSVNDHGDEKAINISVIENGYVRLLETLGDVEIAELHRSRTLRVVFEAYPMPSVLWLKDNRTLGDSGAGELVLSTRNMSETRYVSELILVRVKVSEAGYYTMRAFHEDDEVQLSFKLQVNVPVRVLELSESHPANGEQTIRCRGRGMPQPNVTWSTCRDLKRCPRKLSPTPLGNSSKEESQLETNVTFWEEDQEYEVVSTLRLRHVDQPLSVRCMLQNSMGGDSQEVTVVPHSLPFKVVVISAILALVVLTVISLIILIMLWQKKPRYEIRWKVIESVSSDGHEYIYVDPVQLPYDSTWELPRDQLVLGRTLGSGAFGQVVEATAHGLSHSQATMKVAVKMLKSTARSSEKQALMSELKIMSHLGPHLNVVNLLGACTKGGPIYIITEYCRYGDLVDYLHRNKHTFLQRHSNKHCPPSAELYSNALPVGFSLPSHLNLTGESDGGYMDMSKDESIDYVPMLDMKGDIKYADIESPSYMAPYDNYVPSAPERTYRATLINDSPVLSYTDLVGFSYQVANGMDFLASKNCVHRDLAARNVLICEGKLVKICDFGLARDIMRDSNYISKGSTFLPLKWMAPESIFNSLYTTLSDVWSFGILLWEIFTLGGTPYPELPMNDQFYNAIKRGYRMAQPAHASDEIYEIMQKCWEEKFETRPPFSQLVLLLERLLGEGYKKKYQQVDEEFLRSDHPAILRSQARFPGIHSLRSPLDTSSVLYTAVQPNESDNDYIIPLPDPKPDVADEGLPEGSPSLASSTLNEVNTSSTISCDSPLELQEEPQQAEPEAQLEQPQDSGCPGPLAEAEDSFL
Protocol: FIG. 5C depicts immunoprecipitation of PDGFRb from KPC cells starved for 12 hours, treated with either increasing doses of crenolanib or DMSO for 4 hours and subsequently stimulated with 50 ng/ml of PDGF-BB recombinant protein. Protein levels of PDGFRb, phospho-Tyrosine and Tubulin were determined by western blotting.
Protein levels of PDGFRb, phospho-Tyrosine and Tubulin were determined by western blotting.
FIG. 12E depicts immunoprecipitation of PDGFRb from KPC cells treated with DMSO or crenolanib (300 nM) for different time periods. The input protein levels for PDGFRb, phospho-Tyrosine, and Actin and those present in immunoprecipitates for phospho-Tyrosine were determined by western blotting.
To measure levels of endogenously phosphorylated PDGFRb, KPC cells were treated with the drug as described and harvested in phospho-lysis buffer (50 mM Tris pH 7.5, 1% Tween-20, 200 mM NaCl, 0.2% NP-40, phosphatase inhibitors [2.5 mM Sodium pyrophosphate, 1 mM β-Glycerophosphate, 1 mM Na3VO4], and protease inhibitors [Roche]).

KPC mice = assay: Treatment of KPC mice (PDAC mouse model): tumor, survival and metastasis; assay type: in vivo
Text: (§4) FIG. 6D is a graph of quantification of the number of mice with metastatic disease at the time of death. Values are percentages of the total number of mice in each cohort. Colored columns represent mice with metastases (METS) and white columns represent disease-free (DF) animals.
as §4, with “FIG. 6E is a” for “FIG. 6D is a”, “mice with lung, lymph nodes or liver metastatic disease” for “mice with metastatic disease”
Strains were maintained on mixed background. […] Organs and tumors were removed and fixed in 10% buffered formalin and tumor and metastatic burden was assessed by gross pathology and histology.

PDGFRb [8] = molecular target: T2, PDGFRb; assay: phospho-PDGFRb in pancreatic tumors of treated KPC mice (immunofluorescence); assay type: in vivo; settings: 50 mg/kg oral gavage twice daily
Protocol: DAPI, blue; CK8, red and p-PDGFRb, green. […] 15 images were analyzed per tumor (n=7). Tissues were fixed overnight in formalin, embedded in paraffin, and cut into 5-μm thick sections. Sections were subjected to hematoxylin and eosin staining, and immunohistochemical and immunofluorescent staining following standard protocols. The following primary antibodies were used: mouse anti-GFP (Cell Signaling), rabbit anti-p-PDGFR-β ([MUT]) (Santa Cruz Biotechnology) and rat anti-CK8 (DSHB). […] Images were acquired using a Zeiss Axio Imager D1 scope.

[9] = 50 mg/kg oral gavage twice daily

SMILES: CC1(COc2ccc3c(c2)ncn3-c2ccc3cccc(N4CCC(N)CC4)c3n2)COC1 [crenolanib, Crenolanib]
- inhibition of PDGFRb activity, as measured by phospho-PDGFRb (PDGFRb [1]): Strong inhibition
- invasion relative to cells treated with DMSO (A2.1 cells): substantially reduced invasion
- viability of the injected cell population (KPC cells [2]): no effect on the viability
- toxicity ([3]; KPC cells, 0.3 μM): no toxicity was observed
- IC50 ([3]; Mus musculus, Pancreatic cancer cell, murine KPC cells, MTS assay, 72 hours, read-out: IC50, inhibiting the viability): 13.1 µM
- metastatic potential in lung colonization assay (KPflC cells): did not reduce the metastatic potential
- invasion relative to cells treated with DMSO (KPC cells [4]; 300 nM): substantially reduced invasion
- lung nodules compared to controls pre-treated with DMSO (KPC cells [5]; KPC cells pretreated overnight, injected intravenously): significantly fewer lung nodules
- toxicity ([6]; A2.1 cells, 0.3 μM): no toxicity was observed
- IC50 ([6]; Pancreatic cancer cell, human A2.1 cells, MTS assay, 72 hours, read-out: IC50, inhibiting the viability): 8.5 µM
- inhibition of PDGFRb activity, as measured by phospho-PDGFRb (PDGFRb [7]; 0.3 μM): Strong inhibition
- time of drug treatment to strong target inhibition (PDGFRb [7]; time course, 300 nM): ≤ 10 min

SMILES: Cc1ccc(NC(=O)c2ccc(CN3CCN(C)CC3)cc2)cc1Nc1nccc(-c2cccnc2)n1 [imatinib]
- anti-metastatic effect across organs (liver, lymph nodes and lung) (KPC mice; [9]): anti-metastatic effect was observed
- occurrence of metastasis (KPC mice; [9]): striking reduction in the occurrence of metastasis
- overall survival (KPC mice; 50 mg/kg oral gavage twice daily from 8 weeks of age): no impact
- incidence of metastasis (KPC mice; 50 mg/kg oral gavage twice daily, GFP fluorescence and histopathology, 92% in vehicle-treated animals): 15%
- levels of phospho-PDGFRb in the tumor cells of primary tumors (PDGFRb [8]): reduced levels of phospho-PDGFRb
- invasive potential in vitro (KPC cells [4]; 3 μM vs DMSO): significantly reduced the invasive potential
- potential to colonize the lungs of recipient athymic mice (KPC cells [5]; pre-treatment of KPC cells): decreased their potential to colonize the lungs
- PDGFRb tyrosine phosphorylation (PDGFRb [7]; 3 uM): strongly reduced PDGFRb tyrosine phosphorylation
